Experiments:
[1] = target: Serine/threonine-protein kinase SIK3 (Homo sapiens) (UniProt Q9Y2K2); assay: Inhibition of wild type partial length human QSK (90 to 395 residues) expressed in mammalian expression system at 1 uM by KINOMEscan analysis
MV4-11 [2] = assay: Induction of cell cycle arrest in human MV4-11 cells assessed as accumulation of cells at G2/M phase at 0.8 uM incubated fo 36 hrs by propidium iodide staining based flow cytometry (reference value: 9.5%); type: functional
[3] = target: Dual specificity mitogen-activated protein kinase kinase 5 (Homo sapiens) (UniProt Q13163); assay: Inhibition of wild type partial length human MEK5 (98 to 448 residues) expressed in mammalian expression system at 1 uM by KINOMEscan analysis
Dual specificity mitogen-activated protein kinase kinase 5 (Homo sapiens), sequence (Q13163 whole entry, the tested form may be a part): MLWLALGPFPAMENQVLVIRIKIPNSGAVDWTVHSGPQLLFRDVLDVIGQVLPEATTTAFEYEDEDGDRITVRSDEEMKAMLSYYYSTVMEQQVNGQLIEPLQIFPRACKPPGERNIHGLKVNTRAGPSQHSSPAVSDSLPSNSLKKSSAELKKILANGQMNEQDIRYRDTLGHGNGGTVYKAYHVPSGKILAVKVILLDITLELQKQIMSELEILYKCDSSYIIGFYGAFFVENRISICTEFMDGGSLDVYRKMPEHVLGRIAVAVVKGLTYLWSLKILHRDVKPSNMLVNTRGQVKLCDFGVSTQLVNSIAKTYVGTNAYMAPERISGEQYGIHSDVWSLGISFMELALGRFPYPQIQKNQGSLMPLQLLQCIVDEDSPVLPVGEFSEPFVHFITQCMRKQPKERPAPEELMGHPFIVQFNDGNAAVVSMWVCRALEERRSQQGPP

MV4-11 [4] = assay: Induction of cell cycle arrest in human MV4-11 cells assessed as accumulation of cells at G2/M phase at 0.2 uM incubated fo 36 hrs by propidium iodide staining based flow cytometry (reference value: 9.5%); type: functional
MV4-11 [5] = assay: Induction of apoptosis in human MV4-11 cells assessed as late apoptotic cells at 4 uM incubated for 24 hrs by AnnexinV-FITC/PI staining based flow cytometry (reference value: 5.21%); type: functional
CDK6/cyclin D1 = CDK6/cyclin D1 (Homo sapiens, UniProt Q00534); assay: Inhibition of CDK6/CyclinD1 (unknown origin) by ADP-Glo assay; type: protein-complex assay
CDK6/cyclin D1, sequence (P24385 whole entry): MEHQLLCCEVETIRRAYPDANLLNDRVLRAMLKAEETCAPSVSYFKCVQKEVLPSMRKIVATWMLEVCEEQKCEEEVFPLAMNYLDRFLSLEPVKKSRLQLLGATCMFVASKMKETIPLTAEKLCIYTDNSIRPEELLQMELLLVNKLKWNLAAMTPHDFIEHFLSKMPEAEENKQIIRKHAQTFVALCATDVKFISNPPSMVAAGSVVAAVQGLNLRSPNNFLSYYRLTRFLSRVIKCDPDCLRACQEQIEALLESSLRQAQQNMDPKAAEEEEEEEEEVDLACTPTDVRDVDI
CDK6/cyclin D1, sequence (Q00534 whole entry): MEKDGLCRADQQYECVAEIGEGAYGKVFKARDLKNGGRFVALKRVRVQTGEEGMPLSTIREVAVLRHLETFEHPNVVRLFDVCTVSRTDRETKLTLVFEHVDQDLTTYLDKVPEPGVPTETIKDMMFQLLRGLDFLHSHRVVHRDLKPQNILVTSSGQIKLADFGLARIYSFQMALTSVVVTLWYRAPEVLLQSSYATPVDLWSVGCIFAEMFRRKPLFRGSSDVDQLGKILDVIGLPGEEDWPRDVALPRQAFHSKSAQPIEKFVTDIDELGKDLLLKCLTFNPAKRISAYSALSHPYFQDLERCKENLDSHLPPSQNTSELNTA

MV4-11 [6] = assay: Induction of cell cycle arrest in human MV4-11 cells assessed as accumulation of cells at G0/G1 phase at 0.2 uM incubated fo 36 hrs by propidium iodide staining based flow cytometry (reference value: 64%); type: functional
[7] = target: Cyclin-dependent kinase 4/cyclin D1 (Homo sapiens, UniProt P11802); assay: Inhibition of CDK4/CyclinD1 (unknown origin) by ADP-Glo assay; type: protein-complex assay
Cyclin-dependent kinase 4/cyclin D1, sequence (P11802 whole entry): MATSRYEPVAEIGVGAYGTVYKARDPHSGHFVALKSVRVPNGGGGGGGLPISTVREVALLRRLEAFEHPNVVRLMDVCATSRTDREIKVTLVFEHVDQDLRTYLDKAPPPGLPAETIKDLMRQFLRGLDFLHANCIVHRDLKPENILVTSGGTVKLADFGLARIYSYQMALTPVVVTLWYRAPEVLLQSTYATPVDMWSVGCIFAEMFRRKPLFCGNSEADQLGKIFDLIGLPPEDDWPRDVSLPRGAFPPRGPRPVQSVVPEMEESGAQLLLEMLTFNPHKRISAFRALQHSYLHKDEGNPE
Cyclin-dependent kinase 4/cyclin D1, sequence (P24385 whole entry, further chain): as the sequence (P24385 whole entry) above

CDK7/Cyclin H/MNAT1 = CDK7/Cyclin H/MNAT1 (Homo sapiens, UniProt P50613); assay: Inhibition of CDK7/Cyclin H/MAT1 (unknown origin) by ADP-Glo assay; type: protein-complex assay
CDK7/Cyclin H/MNAT1, sequence (P51946 whole entry): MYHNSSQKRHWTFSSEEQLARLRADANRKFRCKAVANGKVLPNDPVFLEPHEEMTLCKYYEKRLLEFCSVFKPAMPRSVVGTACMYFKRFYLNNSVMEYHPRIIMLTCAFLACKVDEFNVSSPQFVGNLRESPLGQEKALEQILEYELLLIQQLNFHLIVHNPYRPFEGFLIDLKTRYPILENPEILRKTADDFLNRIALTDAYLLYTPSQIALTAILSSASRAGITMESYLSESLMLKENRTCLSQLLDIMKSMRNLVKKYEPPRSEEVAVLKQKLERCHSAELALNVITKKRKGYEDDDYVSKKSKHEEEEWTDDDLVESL
CDK7/Cyclin H/MNAT1, sequence (P50613 whole entry): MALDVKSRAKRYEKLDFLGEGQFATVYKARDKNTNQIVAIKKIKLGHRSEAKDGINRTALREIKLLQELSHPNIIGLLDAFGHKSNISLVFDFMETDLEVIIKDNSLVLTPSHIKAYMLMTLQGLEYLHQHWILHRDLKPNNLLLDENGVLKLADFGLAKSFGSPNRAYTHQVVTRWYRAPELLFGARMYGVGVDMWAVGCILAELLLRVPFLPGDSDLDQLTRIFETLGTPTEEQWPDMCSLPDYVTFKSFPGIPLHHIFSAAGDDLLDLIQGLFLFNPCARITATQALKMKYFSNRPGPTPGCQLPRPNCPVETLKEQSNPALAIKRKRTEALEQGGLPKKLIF
CDK7/Cyclin H/MNAT1, sequence (P51948 whole entry, further chain): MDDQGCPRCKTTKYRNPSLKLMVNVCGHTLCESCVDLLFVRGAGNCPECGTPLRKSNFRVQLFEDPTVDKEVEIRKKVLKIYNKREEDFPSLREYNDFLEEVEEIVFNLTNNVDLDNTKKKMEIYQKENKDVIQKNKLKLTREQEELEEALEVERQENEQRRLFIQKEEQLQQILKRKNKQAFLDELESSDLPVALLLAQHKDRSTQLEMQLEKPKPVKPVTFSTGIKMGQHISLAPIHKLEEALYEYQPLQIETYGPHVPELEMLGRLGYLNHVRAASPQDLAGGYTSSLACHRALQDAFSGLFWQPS

[8] = Cytotoxicity against human L02 cells assessed as reduction in cell viability measured after 72 hrs; type: toxicity, cell-based
[9] = target: Mitogen-activated protein kinase kinase kinase 7 (Homo sapiens) (UniProt O43318); assay: Inhibition of wild type partial length human TAK1 (1 to 303 residues) expressed in mammalian expression system at 1 uM by KINOMEscan analysis
Mitogen-activated protein kinase kinase kinase 7 (Homo sapiens), sequence (O43318 whole entry, the tested form may be a part): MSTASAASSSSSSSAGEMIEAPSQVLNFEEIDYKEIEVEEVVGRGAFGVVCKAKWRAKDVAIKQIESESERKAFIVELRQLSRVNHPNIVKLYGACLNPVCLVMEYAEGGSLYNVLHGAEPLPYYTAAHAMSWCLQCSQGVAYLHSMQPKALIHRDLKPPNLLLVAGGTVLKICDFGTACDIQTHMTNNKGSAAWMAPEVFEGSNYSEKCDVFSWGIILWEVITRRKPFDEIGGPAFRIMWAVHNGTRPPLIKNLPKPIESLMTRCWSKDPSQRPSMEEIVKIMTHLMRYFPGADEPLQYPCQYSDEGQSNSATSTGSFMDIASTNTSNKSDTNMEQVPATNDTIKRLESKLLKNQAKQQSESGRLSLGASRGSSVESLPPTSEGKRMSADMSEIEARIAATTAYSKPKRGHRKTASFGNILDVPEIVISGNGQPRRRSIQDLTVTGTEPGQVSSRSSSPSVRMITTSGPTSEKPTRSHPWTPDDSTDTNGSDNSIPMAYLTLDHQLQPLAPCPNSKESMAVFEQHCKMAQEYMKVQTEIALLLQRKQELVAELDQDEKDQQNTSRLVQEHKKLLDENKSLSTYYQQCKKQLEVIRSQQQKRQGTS

MV4-11 [10] = assay: Induction of apoptosis in human MV4-11 cells assessed as early apoptotic cells at 1 uM incubated for 24 hrs by AnnexinV-FITC/PI staining based flow cytometry (reference value: 1.42%); type: functional
SW480 = assay: Antiproliferative activity against human SW480 cells assessed as reduction in cell viability measured after 72 hrs; type: functional, cell-based; conditions: SW480, 72 h
MCF7 = assay: Antiproliferative activity against human MCF7 cells assessed as reduction in cell viability measured after 72 hrs; type: functional, cell-based; conditions: MCF7, 72 h
BT-549 = assay: Antiproliferative activity against human BT-549 cells assessed as reduction in cell viability measured after 72 hrs; type: functional, cell-based; conditions: BT-549, 72 h
[11] = target: Cyclin-dependent kinase 4/cyclin D1 (Homo sapiens) (UniProt P11802+P24385); assay: Inhibition of wild type full length human CDK4 (1 to 303 residues)/CyclinD1 expressed in mammalian expression system at 1 uM by KINOMEscan analysis
MV4-11 [12] = assay: Antiproliferative activity against human MV4-11 cells assessed as reduction in cell viability measured after 72 hrs; type: functional, cell-based; conditions: MV4-11, 72 h
[13] = target: Mitogen-activated protein kinase kinase kinase kinase 2 (Homo sapiens) (UniProt Q12851); assay: Inhibition of wild type partial length human MAP4K2 (1 to 318 residues) expressed in mammalian expression system at 1 uM by KINOMEscan analysis
[14] = target: MAP kinase-interacting serine/threonine-protein kinase 2 (Homo sapiens) (UniProt Q9HBH9); assay: Inhibition of wild type partial length human MKNK2 (63 to 388 residues) expressed in mammalian expression system at 1 uM by KINOMEscan analysis
MAP kinase-interacting serine/threonine-protein kinase 2 (Homo sapiens), sequence (Q9HBH9 whole entry, looked up, the tested form may be a part): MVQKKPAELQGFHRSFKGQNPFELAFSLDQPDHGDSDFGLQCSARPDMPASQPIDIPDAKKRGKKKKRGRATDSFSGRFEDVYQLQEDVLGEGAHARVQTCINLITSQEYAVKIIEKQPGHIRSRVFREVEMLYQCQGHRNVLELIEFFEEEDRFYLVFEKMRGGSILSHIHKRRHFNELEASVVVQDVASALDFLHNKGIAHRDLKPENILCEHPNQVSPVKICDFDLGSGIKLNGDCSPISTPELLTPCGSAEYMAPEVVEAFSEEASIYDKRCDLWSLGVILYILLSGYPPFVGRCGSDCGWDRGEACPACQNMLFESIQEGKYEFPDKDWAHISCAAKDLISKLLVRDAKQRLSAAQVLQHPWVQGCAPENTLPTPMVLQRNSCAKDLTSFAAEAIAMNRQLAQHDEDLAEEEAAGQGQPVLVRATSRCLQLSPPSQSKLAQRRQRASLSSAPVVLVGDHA

HT-29 = assay: Antiproliferative activity against human HT-29 cells assessed as reduction in cell viability measured after 72 hrs; type: functional, cell-based; conditions: HT-29, 72 h
MV4-11 [15] = assay: Induction of apoptosis in human MV4-11 cells assessed as viable cells at 0.1 uM incubated for 24 hrs by AnnexinV-FITC/PI staining based flow cytometry (reference value: 93.4%); type: functional; conditions: read-out: Activity
MV4-11 [16] = assay: Induction of cell cycle arrest in human MV4-11 cells assessed as accumulation of cells at S phase at 0.4 uM incubated fo 36 hrs by propidium iodide staining based flow cytometry (reference value: 26.5%); type: functional
MV4-11 [17] = assay: Induction of apoptosis in human MV4-11 cells assessed as viable cells at 0.5 uM incubated for 24 hrs by AnnexinV-FITC/PI staining based flow cytometry (reference value: 93.4%); type: functional; conditions: read-out: Activity
MV4-11 [18] = assay: Induction of cell cycle arrest in human MV4-11 cells assessed as accumulation of cells at S phase at 0.1 uM incubated fo 36 hrs by propidium iodide staining based flow cytometry (reference value: 26.5%); type: functional
MV4-11 [19] = assay: Induction of cell cycle arrest in human MV4-11 cells assessed as accumulation of cells at G2/M phase at 0.1 uM incubated fo 36 hrs by propidium iodide staining based flow cytometry (reference value: 9.5%); type: functional
MV4-11 [20] = assay: Induction of apoptosis in human MV4-11 cells assessed as viable cells at 4 uM incubated for 24 hrs by AnnexinV-FITC/PI staining based flow cytometry (reference value: 93.4%); type: functional; conditions: read-out: Activity
MV4-11 [21] = assay: Induction of cell cycle arrest in human MV4-11 cells assessed as accumulation of cells at G0/G1 phase at 0.8 uM incubated fo 36 hrs by propidium iodide staining based flow cytometry (reference value: 64%); type: functional
[22] = target: CDK2/Cyclin A2 (Homo sapiens) (UniProt P24941+P20248); assay: Inhibition of CDK2/CyclinA2 (unknown origin) at 100 nM by ADP-Glo assay relative to control; type: protein-complex assay
CDK9/cyclin T1 = CDK9/cyclin T1 (Homo sapiens, UniProt P50750); assay: Inhibition of CDK9/CyclinT1 (unknown origin) by ADP-Glo assay; type: protein-complex assay
CDK9/cyclin T1, sequence (O60563 whole entry): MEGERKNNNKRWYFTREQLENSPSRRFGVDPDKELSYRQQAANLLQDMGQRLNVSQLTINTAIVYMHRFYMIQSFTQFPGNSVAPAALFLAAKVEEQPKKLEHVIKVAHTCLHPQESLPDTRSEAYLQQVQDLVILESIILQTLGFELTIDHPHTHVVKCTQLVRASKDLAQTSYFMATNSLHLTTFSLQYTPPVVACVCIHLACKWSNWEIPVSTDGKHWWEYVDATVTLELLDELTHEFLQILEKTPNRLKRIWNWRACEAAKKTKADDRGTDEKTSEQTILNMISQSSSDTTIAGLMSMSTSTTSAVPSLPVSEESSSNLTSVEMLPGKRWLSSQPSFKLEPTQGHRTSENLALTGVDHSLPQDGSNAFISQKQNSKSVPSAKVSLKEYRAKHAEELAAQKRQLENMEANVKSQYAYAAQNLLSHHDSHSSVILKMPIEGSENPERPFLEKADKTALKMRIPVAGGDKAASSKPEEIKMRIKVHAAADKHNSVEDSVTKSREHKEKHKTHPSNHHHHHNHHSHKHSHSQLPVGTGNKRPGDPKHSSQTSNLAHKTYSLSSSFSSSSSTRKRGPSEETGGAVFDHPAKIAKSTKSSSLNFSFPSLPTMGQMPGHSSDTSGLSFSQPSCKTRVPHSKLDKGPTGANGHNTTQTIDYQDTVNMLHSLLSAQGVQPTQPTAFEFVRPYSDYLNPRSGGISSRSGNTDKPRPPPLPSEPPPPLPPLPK
CDK9/cyclin T1, sequence (P50750 whole entry): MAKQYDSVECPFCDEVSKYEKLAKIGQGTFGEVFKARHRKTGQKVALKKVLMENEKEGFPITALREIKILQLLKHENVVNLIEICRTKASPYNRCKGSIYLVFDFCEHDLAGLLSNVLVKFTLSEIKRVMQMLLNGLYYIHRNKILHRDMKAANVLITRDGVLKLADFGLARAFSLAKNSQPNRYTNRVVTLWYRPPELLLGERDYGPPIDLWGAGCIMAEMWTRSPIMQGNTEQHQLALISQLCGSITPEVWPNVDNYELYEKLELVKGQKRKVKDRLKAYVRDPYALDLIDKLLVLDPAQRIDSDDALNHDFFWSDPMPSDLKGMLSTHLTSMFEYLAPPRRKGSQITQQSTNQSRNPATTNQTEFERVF

[23] = target: Cyclin-dependent kinase 9 (Homo sapiens) (UniProt P50750); assay: Inhibition of CDK9 in human MV4-11 cells assessed as reduction in Mcl-1 protein expression incubated for 12 hrs by western blot analysis; type: cell-based; conditions: dose 0.1-4 µM
Cyclin-dependent kinase 9 (Homo sapiens), sequence (P50750 whole entry): as above

MV4-11 [24] = assay: Induction of cell cycle arrest in human MV4-11 cells assessed as accumulation of cells at G0/G1 phase at 0.4 uM incubated fo 36 hrs by propidium iodide staining based flow cytometry (reference value: 64%); type: functional
MV4-11 [25] = assay: Induction of apoptosis in human MV4-11 cells assessed as late apoptotic cells at 1 uM incubated for 24 hrs by AnnexinV-FITC/PI staining based flow cytometry (reference value: 5.21%); type: functional
[26] = target: Cyclin-dependent kinase 7 (Homo sapiens) (UniProt P50613); assay: Inhibition of wild type full length human CDK7 (1 to 344 esidues) expessed in mammalian expression system at 1 uM by KINOMEscan analysis
Cyclin-dependent kinase 7 (Homo sapiens), sequence (P50613 whole entry): as the sequence (P50613 whole entry) above

[27] = Cytotoxicity against human HEK293 cells assessed as reduction in cell viability measured after 72 hrs; type: toxicity, cell-based

## COc1cc(O)c2c(=O)cc(-c3ccc(N4CCN(C)CC4)cc3)oc2c1C1=CCN(C)CC1
[1]
  inhibition: 3.3%
MV4-11 [2]
  Activity: 5%
[3]
  inhibition: 0%
MV4-11 [4]
  Activity: 7.1%
MV4-11 [5]
  Activity: 21.3%
CDK6/cyclin D1
  IC50: 589 nM
MV4-11 [6]
  Activity: 73.9%
[7]
  IC50: 53 nM
CDK7/Cyclin H/MNAT1
  IC50: 536 nM
[8]
  IC50 at 72 h: 10600 nM
[9]
  inhibition: 9.5%
MV4-11 [10]
  Activity: 9.95%
SW480
  IC50: 3450 nM
MCF7
  IC50: 140 nM
BT-549
  IC50: 210 nM
[11]
  inhibition: 5.3%
MV4-11 [12]
  IC50: 60 nM
[13]
  inhibition: 9.9%
[14]
  inhibition: 1.6%
HT-29
  IC50: 1060 nM
MV4-11 [15]
  viability at 0.1 µM: 91.5%
MV4-11 [16]
  Activity: 12.8%
MV4-11 [17]
  viability at 0.5 µM: 87.8%
MV4-11 [18]
  Activity: 21%
MV4-11 [19]
  Activity: 8.5%
MV4-11 [20]
  viability at 4 µM: 7.98%
MV4-11 [21]
  Activity: 84.2%
[22]
  inhibition: 16.7%
CDK9/cyclin T1
  IC50: 6.7 nM
[23]
  inhibition: Dose-Dependent Effect
MV4-11 [24]
  Activity: 81.2%
MV4-11 [25]
  Activity: 20.9%
[26]
  inhibition: 4.8%
[27]
  IC50 at 72 h: 10700 nM
